Test results: PMC3824154 (Angewandte Chemie (International ed. in English), 2013)

Biological target: T1, MBP-RebF (Lentzea aerocolonigenes, UniProt Q8KI76)
T1 sequence (Q8KI76 1-170): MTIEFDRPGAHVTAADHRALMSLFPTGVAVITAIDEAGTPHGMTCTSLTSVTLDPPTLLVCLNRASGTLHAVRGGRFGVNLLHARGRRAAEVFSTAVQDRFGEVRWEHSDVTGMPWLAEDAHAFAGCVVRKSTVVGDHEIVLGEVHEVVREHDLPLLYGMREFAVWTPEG
Assay: FAD reduction activity
Format: biochemical

For `Cc1cc2nc3c(=O)[nH]c(=O)nc-3n(C[C@H](O)[C@H](O)[C@H](O)COP(=O)(O)OP(=O)(O)OC[C@H]3O[C@@H](n4cnc5c(N)ncnc54)[C@H](O)[C@@H]3O)c2cc1C` [FAD], the “FAD reduction activity (turnover)” value (NADH as electron donor) was “retained high activity for the NAD-dependent reduction of FAD to FADH2”.
`NC(=O)C1=CN([C@@H]2O[C@H](COP(=O)(O)OP(=O)(O)OC[C@H]3O[C@@H](n4cnc5c(N)ncnc54)[C@H](O)[C@@H]3O)[C@@H](O)[C@H]2O)C=CC1` [NADH] was tested, and the “FAD reduction activity (turnover)” value (FAD as electron acceptor) was “MBP-RebF, which uses NADH to reduce FAD to FADH2”.
